Reference: patent US20260234211A1, “POLYPEPTIDE HAVING MODIFIED STRUCTURE AND USE THEREOF” (Guangdong Raynovent Biotech Co., Ltd., priority 2023, published 2026)
Like-named read-outs stand apart in the source and are kept apart here.

What was measured:
GCGR = target: T1, GCGR (Homo sapiens, UniProt P47871); test: In vitro GCGR agonistic activity test (cAMP, HEK293 cell line); assay type: cell-based
T1 construct: host or cells: HEK293
Protocol: (§1) The cell lines were constructed by Pharmaron Inc. See details in the table below.
(§2) The test compounds were diluted at a 5-fold dilution factor in 10 points, starting from an initial concentration of 200 nM.
(§3) 1) The cell lines were cultured respectively in complete medium at 37° C. and 5% CO2.
2) After digestion with TrypLE, the cells were re-suspended in experimental buffer respectively, and inoculated in a CulturPlate-384 cell culture plate at a density of 2000 cells/well and at a volume of 15 μL/well.
(§4) 1) Eu-cAMP tracer was freeze-thawed and diluted 50 fold with detection buffer; and Ulight-anti-cAMP was freeze-thawed and diluted 150 fold with detection buffer.
2) 5 μL of the test compounds were added respectively into experimental wells of the CulturPlate-384 cell culture plate, which was centrifuged at 200 g for 30 s, and left for stand at 37° C. for 30 min.
(§5) 3) 10 μL of Eu-cAMP tracer was added and then 10 μL of Uligh-anti-cAMP was added into experimental wells respectively.
(§6) 4) The reaction plate was centrifuged at 200 g at room temperature for 30 s and left for stand at 25° C. for 1 h.
5) Envision 2105 was used to collect data, with excitation light at 340 nm and emission light at 665 nm and 615 nm.

[1] = Pharmacokinetic properties in Cynomolgus macaques; conditions: cynomolgus monkey, in vivo, male cynomolgus macaques, plasma
Protocol: To test the pharmacokinetic profiles of the compounds in Cynomolgus macaques.
Non-juvenile male cynomolgus macaques were used for experiment, 3 cynomolgus macaques for each compound. Whole blood was collected at time points of 1 h, 2 h, 4 h, 8 h, 16 h, 24 h, 48 h, 72 h, 120 h, 168 h and 240 h after administration, to prepare plasma. The drug concentration was analyzed by LC-MS/MS method, and the pharmacokinetic parameters were calculated using Phoenix WinNonlin software.

GLP-1R = target: T2, GLP-1R (Homo sapiens, UniProt P43220); test: In vitro GLP-1R agonistic activity test (cAMP, HEK293 cell line); assay type: cell-based
T2 construct: host or cells: HEK293
T2 sequence (P43220 24-463, species assumed): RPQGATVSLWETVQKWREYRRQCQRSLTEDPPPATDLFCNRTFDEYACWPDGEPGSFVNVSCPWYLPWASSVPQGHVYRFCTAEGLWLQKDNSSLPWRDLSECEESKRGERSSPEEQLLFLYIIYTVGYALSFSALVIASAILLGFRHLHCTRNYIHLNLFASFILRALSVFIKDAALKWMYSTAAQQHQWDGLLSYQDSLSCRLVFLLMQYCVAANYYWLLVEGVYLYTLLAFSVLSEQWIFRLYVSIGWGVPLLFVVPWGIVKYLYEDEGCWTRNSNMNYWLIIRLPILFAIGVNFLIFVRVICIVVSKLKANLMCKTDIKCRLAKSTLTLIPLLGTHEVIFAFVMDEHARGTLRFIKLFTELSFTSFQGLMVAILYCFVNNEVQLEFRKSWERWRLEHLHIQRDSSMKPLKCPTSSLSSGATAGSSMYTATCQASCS
Protocol: as §1, §2, §3, §4, §5, §6

GIPR = target: T3, GIPR (Homo sapiens, UniProt P48546); test: In vitro GIPR agonistic activity test (cAMP, CHO cell line); assay type: cell-based; conditions: CHO cells expressing GIPR, read-out: GIP-1 EC50
T3 construct: host or cells: CHO
T3 sequence (P48546 22-466): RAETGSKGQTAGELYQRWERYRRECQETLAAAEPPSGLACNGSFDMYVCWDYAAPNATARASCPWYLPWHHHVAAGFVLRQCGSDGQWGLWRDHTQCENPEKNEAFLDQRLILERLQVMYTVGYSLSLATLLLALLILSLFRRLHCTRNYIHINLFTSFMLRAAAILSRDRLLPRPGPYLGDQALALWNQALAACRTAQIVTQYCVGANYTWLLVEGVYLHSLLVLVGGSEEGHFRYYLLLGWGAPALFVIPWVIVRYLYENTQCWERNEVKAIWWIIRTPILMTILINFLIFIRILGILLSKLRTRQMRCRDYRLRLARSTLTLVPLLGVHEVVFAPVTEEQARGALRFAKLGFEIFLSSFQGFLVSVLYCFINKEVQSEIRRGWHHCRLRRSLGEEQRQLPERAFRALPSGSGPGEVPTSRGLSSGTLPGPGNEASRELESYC
Protocol: as §1, §2, §3, §4, §5, §6

[2] = Metabolic stability in human kidney S9; assay type: in vitro ADME; conditions: human, s9
Protocol: The metabolic stability of the compounds in human kidney was evaluated to determine whether the drugs would be degraded by metabolic enzymes in the kidney to affect the efficacies and pharmacokinetics. 1. Relevant solutions were formulated. 2. a) With cofactors (NADPH & UDPGA): NADPH and UDPGA were added during the incubation. […] H2O was added into the culture solution. The final concentration of KS9 Fractions was 1 mg/mL. The mixture was pre-heated at 37° C. for 10 min. […] In this study, 7-hydroxy-coumarin and Raloxifene were used as the positive control. The final concentration of the positive control compounds was 0.2 μM, and the final concentration of the test compound was 1 μM. The culture solution was incubated in water bath at 37° C. 4. At 0.5, 5, 15, 30 and 60 min, volume aliquots were taken from the reaction solution and the reaction was stopped by adding acetonitrile. The samples were centrifuged for 30 min. The supernatant was taken and mixed with ultrapure water for subsequent LC-MS/MS analysis. 5. Data analysis: All calculation was conducted using Microsoft Excel. Peak areas were determined and slope values were calculated based on the extracted ion chromatograms.

[3] = cAMP, HEK293 cells expressing GLP-1R, read-out: GLP-1 EC50
[4] = cAMP, HEK293 cells expressing GCGR, read-out: GCG EC50

T1 sequence (P47871 26-477, species assumed): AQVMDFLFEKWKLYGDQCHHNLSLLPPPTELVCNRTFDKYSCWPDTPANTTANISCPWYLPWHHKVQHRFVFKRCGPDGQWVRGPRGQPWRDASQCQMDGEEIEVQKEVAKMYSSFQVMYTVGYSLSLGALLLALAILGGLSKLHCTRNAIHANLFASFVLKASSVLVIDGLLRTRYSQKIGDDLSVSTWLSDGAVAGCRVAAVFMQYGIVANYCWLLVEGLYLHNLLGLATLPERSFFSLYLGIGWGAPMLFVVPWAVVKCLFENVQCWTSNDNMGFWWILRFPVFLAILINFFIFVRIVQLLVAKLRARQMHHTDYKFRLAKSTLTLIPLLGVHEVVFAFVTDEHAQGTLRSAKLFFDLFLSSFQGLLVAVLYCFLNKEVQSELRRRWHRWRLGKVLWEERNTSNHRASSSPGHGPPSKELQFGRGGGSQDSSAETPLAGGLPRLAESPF

For `CC[C@H](C)[C@H](NC(=O)[C@H](Cc1ccccc1)NC(=O)[C@H](C)NC(=O)C(C)(C)NC(=O)[C@H](CCC(N)=O)NC(=O)[C@H](C)NC(=O)[C@@H]1CCCCNC(=O)CN(C(=O)COCCOCCNC(=O)[C@@H](N)CCCCNC(=O)CC[C@H](NC(=O)CCCCCCCCCCCCCCCCCCC(=O)O)C(=O)O)CC(=O)NCCCC[C@H](NC(=O)[C@](C)(CC(C)C)NC(=O)[C@@H](NC(=O)[C@H](CO)NC(=O)[C@H](Cc2ccc(O)cc2)NC(=O)[C@H](CC(=O)O)NC(=O)[C@H](CO)NC(=O)[C@@H](NC(=O)[C@H](Cc2ccccc2)NC(=O)[C@@H](NC(=O)CNC(=O)[C@H](CCC(N)=O)NC(=O)C(C)(C)NC(=O)[C@@H](N)Cc2ccc(O)cc2)[C@@H](C)O)[C@@H](C)O)[C@@H](C)CC)C(=O)N[C@@H](CC(=O)O)C(=O)N[C@@H](CCCCN)C(=O)N1)C(=O)N[C@@H](CCC(=O)O)C(=O)N[C@@H](Cc1ccc(O)cc1)C(=O)N[C@@H](CC(C)C)C(=O)N[C@@H](CC(C)C)C(=O)N[C@@H](CCC(=O)O)C(=O)NCC(=O)NCC(=O)N1CCC[C@H]1C(=O)N[C@@H](CO)C(=O)N[C@@H](CO)C(=O)NCC(=O)N[C@@H](C)C(=O)N1CCC[C@H]1C(=O)N1CCC[C@H]1C(=O)N1CCC[C@H]1C(=O)N[C@@H](CO)C(N)=O` [Example 52, YAibQGT FTSDY SIα- MeL^1KD K^1KAQAib AFIEY LLEGG PSSGA PPPS-NH2 (SEQ ID NO: 24)], the EC50 (GCGR) was 25 pM, the AUC(0-t) ([1]; read-out: AUC0-240 h) was 5.23 µM·h and the AUC(0-inf) ([1]; read-out: AUCINF) was 6.61 µM·h. The Cmax ([1]; read-out: Cmax) was 36.2 nM, the half-life ([1]; read-out: T1/2 (converted)) was 97.8 h and the Tmax ([1]; read-out: Tmax) was 29.3 h. The EC50 (GLP-1R) was 3 pM.
`CC[C@H](C)[C@H](NC(=O)[C@H](Cc1ccccc1)NC(=O)[C@@H]1CCCCNC(=O)CN(C(=O)COCCOCCNC(=O)COCCOCCNC(=O)CC[C@H](NC(=O)CCCCCCCCCCCCCCCCCCC(=O)O)C(=O)O)CC(=O)NCCCC[C@H](NC(=O)[C@H](CCCCN)NC(=O)[C@H](CC(=O)O)NC(=O)[C@H](CC(C)C)NC(=O)[C@](C)(CC(C)C)NC(=O)[C@@H](NC(=O)[C@H](CO)NC(=O)[C@H](Cc2ccc(O)cc2)NC(=O)[C@H](CC(=O)O)NC(=O)[C@H](CO)NC(=O)[C@@H](NC(=O)[C@H](Cc2ccccc2)NC(=O)[C@@H](NC(=O)CNC(=O)[C@H](CCC(N)=O)NC(=O)C(C)(C)NC(=O)[C@@H](N)Cc2ccc(O)cc2)[C@@H](C)O)[C@@H](C)O)[C@@H](C)CC)C(=O)N[C@@H](C)C(=O)N[C@@H](CCC(N)=O)C(=O)NC(C)(C)C(=O)N1)C(=O)N[C@@H](CCC(=O)O)C(=O)N[C@@H](Cc1ccc(O)cc1)C(=O)N[C@@H](CC(C)C)C(=O)N[C@@H](CC(C)C)C(=O)N[C@@H](CCC(=O)O)C(=O)NCC(=O)NCC(=O)N1CCC[C@H]1C(=O)N[C@@H](CO)C(=O)N[C@@H](CO)C(=O)NCC(=O)N[C@@H](C)C(=O)N1CCC[C@H]1C(=O)N1CCC[C@H]1C(=O)N1CCC[C@H]1C(=O)N[C@@H](CO)C(N)=O` [Example 1, YAibQGT FTSDY SIα- MeLLD K^1KAQAib ^1KFIEY LLEGG PSSGA PPPS-NH2 (SEQ ID NO: 1)] gave an EC50 (GIPR) of 1 pM, a half-life at 1 μM [2] greater than 3.08 h and a microsomal CLint at 1 μM [2] of less than 3.75 µL/min/mg. It also gave an EC50 (GLP-1R; [3]) of 9 pM.
`CC[C@H](C)[C@H](NC(=O)[C@H](Cc1ccccc1)NC(=O)[C@H](C)NC(=O)C(C)(C)NC(=O)[C@H](CCC(N)=O)NC(=O)[C@H](C)NC(=O)[C@@H]1CCCCNC(=O)CN(C(=O)COCCOCCNC(=O)CC[C@H](NC(=O)CCCCCCCCCCCCCCCCCCC(=O)O)C(=O)O)CC(=O)NCCCC[C@H](NC(=O)[C@](C)(CC(C)C)NC(=O)[C@@H](NC(=O)[C@H](CO)NC(=O)[C@H](Cc2ccc(O)cc2)NC(=O)[C@H](CC(=O)O)NC(=O)[C@H](CO)NC(=O)[C@@H](NC(=O)[C@H](Cc2ccccc2)NC(=O)[C@@H](NC(=O)CNC(=O)[C@H](CCC(N)=O)NC(=O)C(C)(C)NC(=O)[C@@H](N)Cc2ccc(O)cc2)[C@@H](C)O)[C@@H](C)O)[C@@H](C)CC)C(=O)N[C@@H](CC(=O)O)C(=O)N[C@@H](CCCCN)C(=O)N1)C(=O)N[C@@H](CCC(N)=O)C(=O)N[C@@H](Cc1ccc(O)cc1)C(=O)N[C@@H](CC(C)C)C(=O)N[C@@H](CC(C)C)C(=O)N[C@@H](CCC(=O)O)C(=O)NCC(=O)NCC(=O)N1CCC[C@H]1C(=O)N[C@@H](CO)C(=O)N[C@@H](CO)C(=O)NCC(=O)N[C@@H](C)C(=O)N1CCC[C@H]1C(=O)N1CCC[C@H]1C(=O)N1CCC[C@H]1C(=O)N[C@@H](CO)C(N)=O` [Example 42, YAibQGT FTSDY SIα- MeL^1KD K^1KAQAib AFIQY LLEGG PSSGA PPPS-NH2 (SEQ ID NO: 39)] gave an EC50 (GCGR; [4]) of 25 pM and an EC50 (GLP-1R; [3]) of 7 pM.
Work on `CC[C@H](C)[C@H](NC(=O)[C@H](Cc1ccccc1)NC(=O)[C@H](C)NC(=O)C(C)(C)NC(=O)[C@H](CCC(N)=O)NC(=O)[C@H](C)NC(=O)[C@@H]1CCCCNC(=O)CN(C(=O)COCCOCCNC(=O)CC[C@H](NC(=O)CCCCCCCCCCCCCCCCCCC(=O)O)C(=O)O)CC(=O)NCCCC[C@H](NC(=O)[C@](C)(CC(C)C)NC(=O)[C@@H](NC(=O)[C@H](CO)NC(=O)[C@H](Cc2ccc(O)cc2)NC(=O)[C@H](CC(=O)O)NC(=O)[C@H](CO)NC(=O)[C@@H](NC(=O)[C@](C)(Cc2ccccc2)NC(=O)[C@@H](NC(=O)CNC(=O)[C@H](CCC(N)=O)NC(=O)C(C)(C)NC(=O)[C@@H](N)Cc2ccc(O)cc2)[C@@H](C)O)[C@@H](C)O)[C@@H](C)CC)C(=O)N[C@@H](CC(=O)O)C(=O)N[C@@H](CCCCN)C(=O)N1)C(=O)N[C@@H](CCC(=O)O)C(=O)N[C@@H](Cc1ccc(O)cc1)C(=O)N[C@@H](CC(C)C)C(=O)N[C@@H](CC(C)C)C(=O)N[C@@H](CCCCN)C(=O)NCC(=O)NCC(=O)N1CCC[C@H]1C(=O)N[C@@H](CO)C(=O)N[C@@H](CO)C(=O)NCC(=O)N[C@@H](C)C(=O)N1CCC[C@H]1C(=O)N1CCC[C@H]1C(=O)N1CCC[C@H]1C(=O)N[C@@H](CO)C(N)=O` [Example 51, YAibQGT α-MeFTSDY SIα- MeL^1KD K^1KAQAib AFIEY LLKGG PSSGA PPPS-NH2 (SEQ ID NO: 43)] yielded an EC50 (GCGR; [4]) of 25 pM and an EC50 (GLP-1R; [3]) of 1 pM.
